# Results as given in paper PMC6017115, “Inhibitory Effect of Sauchinone on UDP-Glucuronosyltransferase (UGT) 2B7 Activity” (Molecules : A Journal of Synthetic Chemistry and Natural …, 2018).
# Marks after values point to notes of the source that are not given here.
# T1: UGT1A6 (Homo sapiens, UniProt P19224)
# T1 construct: tissue Corning Life Sciences 452156; host or cells: pooled human liver microsomes
# T1 sequence (P19224 27-532): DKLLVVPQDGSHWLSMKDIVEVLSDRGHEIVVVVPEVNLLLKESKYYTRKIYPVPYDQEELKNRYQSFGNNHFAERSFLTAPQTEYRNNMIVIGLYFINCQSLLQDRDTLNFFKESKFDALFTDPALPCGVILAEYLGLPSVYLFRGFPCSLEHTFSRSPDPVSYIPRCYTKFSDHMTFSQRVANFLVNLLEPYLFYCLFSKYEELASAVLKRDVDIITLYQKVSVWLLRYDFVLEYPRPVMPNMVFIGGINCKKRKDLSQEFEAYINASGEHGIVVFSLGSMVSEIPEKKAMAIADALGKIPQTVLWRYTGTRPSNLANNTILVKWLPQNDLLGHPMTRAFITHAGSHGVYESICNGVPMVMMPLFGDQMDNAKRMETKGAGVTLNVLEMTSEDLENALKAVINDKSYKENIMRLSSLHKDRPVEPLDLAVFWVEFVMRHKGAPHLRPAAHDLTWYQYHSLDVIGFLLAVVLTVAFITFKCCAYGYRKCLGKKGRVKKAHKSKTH
# T2: UGT1A1 (Homo sapiens, UniProt P22309)
# T2 construct: The reaction mixture containing 0.25 mg/mL protein of HLM; tissue Corning Life Sciences 452156; host or cells: pooled human liver microsomes, 50 donors
# T2 sequence (P22309 26-533): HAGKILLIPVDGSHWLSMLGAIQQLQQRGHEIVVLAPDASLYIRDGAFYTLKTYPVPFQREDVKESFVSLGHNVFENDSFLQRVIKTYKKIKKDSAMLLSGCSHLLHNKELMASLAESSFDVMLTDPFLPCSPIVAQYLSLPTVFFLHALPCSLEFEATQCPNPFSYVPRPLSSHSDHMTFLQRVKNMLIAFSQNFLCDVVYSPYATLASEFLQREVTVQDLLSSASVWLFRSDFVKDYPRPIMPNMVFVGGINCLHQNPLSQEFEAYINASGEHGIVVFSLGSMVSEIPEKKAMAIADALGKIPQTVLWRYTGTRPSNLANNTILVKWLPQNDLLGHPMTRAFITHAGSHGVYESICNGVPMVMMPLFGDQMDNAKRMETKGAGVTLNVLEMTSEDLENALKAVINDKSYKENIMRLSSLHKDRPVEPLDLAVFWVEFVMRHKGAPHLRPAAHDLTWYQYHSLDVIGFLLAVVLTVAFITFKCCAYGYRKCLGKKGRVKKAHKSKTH
# T3: UGT1A4 (Homo sapiens, UniProt P22310)
# T3 construct: The reaction mixture containing 0.25 mg/mL protein of HLM; tissue Corning Life Sciences 452156; host or cells: pooled human liver microsomes, 50 donors
# T3 sequence (P22310 29-534): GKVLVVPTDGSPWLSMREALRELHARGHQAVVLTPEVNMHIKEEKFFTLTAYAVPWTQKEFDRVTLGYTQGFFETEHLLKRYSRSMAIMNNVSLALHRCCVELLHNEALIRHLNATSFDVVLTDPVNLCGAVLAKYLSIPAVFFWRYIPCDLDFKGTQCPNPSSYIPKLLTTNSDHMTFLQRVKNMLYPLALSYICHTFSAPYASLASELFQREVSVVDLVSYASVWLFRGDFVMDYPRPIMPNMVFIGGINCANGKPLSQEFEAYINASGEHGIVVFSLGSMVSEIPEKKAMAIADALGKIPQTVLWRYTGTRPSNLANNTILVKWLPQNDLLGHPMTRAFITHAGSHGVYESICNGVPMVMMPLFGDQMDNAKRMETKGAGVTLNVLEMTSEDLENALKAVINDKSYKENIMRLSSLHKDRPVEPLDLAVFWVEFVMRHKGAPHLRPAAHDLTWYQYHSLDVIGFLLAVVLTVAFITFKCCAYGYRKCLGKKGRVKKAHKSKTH
# T4: UGT1A9 (Homo sapiens, UniProt O60656)
# T4 construct: The reaction mixture containing 0.25 mg/mL protein of HLM; tissue Corning Life Sciences 452156; host or cells: pooled human liver microsomes, 50 donors
# T4 sequence (O60656 26-530): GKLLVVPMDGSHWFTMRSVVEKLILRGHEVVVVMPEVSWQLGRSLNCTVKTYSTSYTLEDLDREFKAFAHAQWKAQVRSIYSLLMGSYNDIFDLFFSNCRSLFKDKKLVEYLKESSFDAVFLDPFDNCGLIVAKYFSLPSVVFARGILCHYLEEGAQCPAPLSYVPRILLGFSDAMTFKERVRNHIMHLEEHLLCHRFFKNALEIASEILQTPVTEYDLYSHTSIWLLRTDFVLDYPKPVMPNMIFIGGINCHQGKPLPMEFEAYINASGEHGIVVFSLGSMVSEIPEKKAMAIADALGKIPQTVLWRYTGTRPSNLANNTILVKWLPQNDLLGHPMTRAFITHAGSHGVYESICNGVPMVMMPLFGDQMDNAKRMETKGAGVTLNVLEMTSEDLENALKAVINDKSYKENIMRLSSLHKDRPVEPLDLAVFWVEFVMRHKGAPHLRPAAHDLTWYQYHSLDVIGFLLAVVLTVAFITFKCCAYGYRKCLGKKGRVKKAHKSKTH
# T5: UGT2B7 (Homo sapiens, UniProt P16662)
# T5 sequence (P16662 24-529): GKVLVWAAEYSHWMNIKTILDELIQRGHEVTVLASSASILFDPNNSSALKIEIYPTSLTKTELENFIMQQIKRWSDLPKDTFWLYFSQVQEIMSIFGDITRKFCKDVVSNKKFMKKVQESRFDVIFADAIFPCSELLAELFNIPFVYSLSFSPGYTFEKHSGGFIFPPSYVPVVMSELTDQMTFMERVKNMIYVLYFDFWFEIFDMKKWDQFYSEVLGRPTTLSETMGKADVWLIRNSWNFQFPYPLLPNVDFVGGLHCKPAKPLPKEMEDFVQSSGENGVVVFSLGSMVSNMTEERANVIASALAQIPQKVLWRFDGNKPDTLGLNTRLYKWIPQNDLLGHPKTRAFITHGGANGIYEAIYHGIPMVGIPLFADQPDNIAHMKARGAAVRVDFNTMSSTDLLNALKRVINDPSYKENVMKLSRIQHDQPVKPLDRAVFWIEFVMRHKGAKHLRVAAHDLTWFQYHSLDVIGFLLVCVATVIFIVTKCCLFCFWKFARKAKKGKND
# B1: UGT1A6 (Homo sapiens) (protein)
# chain: T1 sequence (P19224 27-532)
# Assays:
# [1] = target: T1, UGT1A6; assay: Inhibition of UGT1A6 (serotonin glucuronidation) in human liver microsomes; assay type: in vitro ADME
# Method: (§1) Their IC50 values were compared to that of sauchinone. […] UGT-mediated activities in the presence of sauchinone as an inhibitor were expressed as percentages of corresponding control values (in absence of sauchinone). From percentages of control activity versus inhibitor concentrations, a sigmoid shaped curve was fitted to the data and IC50 as an enzyme inhibition parameter was calculated by fitting the Hill equation to the data using GraphPad Prism 5 (GraphPad Software Inc., San Diego, CA, USA).
# [2] = target: T2, UGT1A1; assay: Inhibition of UGT1A1 (β-estradiol glucuronidation) in human liver microsomes; assay type: in vitro ADME; conditions: substrate 10 μM β-estradiol, mean (minimum–maximum)
# Method: as §1
# [3] = target: T3, UGT1A4; assay: Inhibition of UGT1A4 (trifluoperazine glucuronidation) in human liver microsomes; assay type: in vitro ADME
# Method: as §1
# [4] = target: T4, UGT1A9; assay: Inhibition of UGT1A9 (propofol glucuronidation) in human liver microsomes; assay type: in vitro ADME; conditions: substrate 100 μM propofol, mean (minimum–maximum)
# Method: as §1
# [5] = target: T5, UGT2B7; assay: Enzyme kinetic assay (Ki, Dixon plot) of UGT2B7-mediated zidovudine glucuronidation; conditions: human, pH 7.6
# Method: Inhibitory effects of sauchinone on UGT1A1, 1A3, 1A4, 1A6, 1A9, and 2B7 activities were evaluated using HLMs. […] Spiked volume of UGT cocktail set was 1% (v/v) of total volume of mixture. […] The reaction was initiated by adding 5 mM UDPGA to a final volume of 150 μL and incubated at 37 °C for 15 or 60 min in a thermomixer at 500 rpm. Each reaction was stopped by adding 150 μL of ice-cold methanol containing 50 ng/mL IS. These mixtures were then centrifuged (12,000 rpm for 10 min at 4 °C) and 5 μL of the supernatant was injected into a UPLC-MS/MS system. […] Their IC50 values were compared to that of sauchinone. All inhibitors were dissolved in methanol (except for hecogenin, which was dissolved in dimethyl sulfoxide) and serially diluted to the required concentrations using the same solutions. The final concentration of organic solvent of inhibitors was 1% (v/v). All studies were performed in triplicate and mean values were used in the analysis. The half maximal inhibition constant (IC50) of sauchinone on UGT isoforms was estimated using GraphPad program.
# Based on IC50 values, Ki values of sauchinone for UGT1A6 and 2B7 were determined. Concentrations of 0–200 μM of sauchinone were used. Other procedures were similar to those mentioned above in the study of reversible inhibitory effects of sauchinone. Inhibitory characteristics of sauchinone were initially estimated by nonlinear least squares regression analysis and Ki values were determined by Dixon plots.
# [6] = Pharmacokinetic study of zidovudine with or without sauchinone in mice; conditions: for CLNR / AUC(0-t) / AUC / clearance / CL renal / MRT / Vd / half-life / Ae0–24 h / GI24 h: mean ± SD, n = 11; for AUC(0-t) / AUC / clearance / CL renal / MRT / Vd / half-life: mouse, plasma, iv, 15 mg/kg; for AUC(0-t): AUC480 min; for AUC: time zero to infinity; for clearance: CL; for CL renal: CLR; for Vd: Vss; for half-life: t1/2, mice; for Ae0–24 h: zidovudine excreted into urine for 24 h; for GI24 h: zidovudine remaining or excreted in GI at 24 h
# [7] = substrate: NCCc1c[nH]c2ccc(O)cc12; assay: purified protein, by the assay type; conditions: other: without sauchinone; pH 7.6; 37.0 °C
# [8] = mice, zidovudine 15 mg/kg iv with oral 100 mg/kg sauchinone
# [9] = mice, zidovudine 15 mg/kg iv with vehicle
# [10] = mice, zidovudine 15 mg/kg iv, oral 100 mg/kg sauchinone
molecule,measurement,setting,value
Oc1cccc2ccccc12 [1-Naphthol],IC50,[1],35.2 µM
O=c1cc(-c2ccccc2)oc2cc(O)cc(O)c12 [Chrysin],IC50,[2],28.3 µM
C[C@@H]1CC[C@@]2(OC1)O[C@H]1C[C@H]3[C@@H]4CC[C@H]5C[C@@H](O)CC[C@]5(C)[C@H]4CC(=O)[C@]3(C)[C@H]1[C@@H]2C [Hecogenin],IC50,[3],3.99 µM
O=C(O)c1cccnc1Nc1cccc(C(F)(F)F)c1 [Niflumic acid],IC50,[4],0.755 µM
Cc1cn([C@H]2C[C@H](N=[N+]=[N-])[C@@H](CO)O2)c(=O)[nH]c1=O [zidovudine],Km,[5],85 µM
same,CLNR,[6]; [8],24.5 ± 9.31 ^a mL/min/kg
same,CLNR,[6]; [9],34.8 ± 10.5 mL/min/kg
same,decrease of CL of zidovudine with sauchinone compared to without,[6]; [10],29.3%
same,decrease of CLNR of zidovudine with sauchinone compared to without,[6]; [10],29.6%
same,increase of AUC480 min of zidovudine with sauchinone compared to without,[6]; [10],53.1%
same,AUC(0-t),[6]; [8],5730 ng·h/mL
same,AUC(0-t),[6]; [9],3780 ng·h/mL
same,AUC,[6]; [8],5820 ng·h/mL
same,AUC,[6]; [9],3800 ng·h/mL
same,clearance,[6]; [8],48.6 ± 16.1 mL/min/kg
same,clearance,[6]; [9],68.7 ± 18.7 mL/min/kg
same,CL renal,[6]; [8],24 ± 8.02 mL/min/kg
same,CL renal,[6]; [9],34 ± 11.2 mL/min/kg
same,MRT,[6]; [8],0.725 h
same,MRT,[6]; [9],0.93 h
same,Vd,[6]; [8],2.1 ± 1.23 L/kg
same,Vd,[6]; [9],3.31 ± 1.67 L/kg
same,half-life,[6]; zidovudine 15 mg/kg iv with oral 100 mg/kg sauchinone,2.97 ± 1.55 h
same,half-life,[6]; zidovudine 15 mg/kg iv with vehicle,3.45 ± 2.22 h
same,Ae0–24 h,[6]; [8],50.2 ± 8.41 % of dose
same,Ae0–24 h,[6]; [9],50.3 ± 8.01 % of dose
same,GI24 h,[6]; [8],0.321 ± 0.646 % of dose
same,GI24 h,[6]; [9],0.672 ± 0.999 % of dose
B1,Km,[7],126 µM
same,Vmax,[7],174 μM/min/mg protein
